Patent publication US20190270712A1, “COMPOSITIONS FOR THE TREATMENT OF PULMONARY FIBROSIS” (Vectus Biosystems Limited, priority 2016, published 2019)

How the values were obtained:
[1] = tested on: human small airway epithelial cells; experiment: In vitro screening: xCELLigence SP cellular impedance (cell index); assay type: cell-based; conditions: 10 μM, 20 μM or 30 μM test compound, 0.25% DMSO, measured every 20 seconds for 3 hours
Procedure: The xCELLigence SP system (Roche) was used to measure changes in cellular impedance (cell index) following the treatment of human small airway epithelial cells (ATCC) with test compound.
Briefly, 50 μl of cell culture medium (DMEM low glucose supplemented with 15% fetal bovine serum at 37° C.) was added to each well of an E-Plate 96 (Roche), and the background impedance in each well was measured. 50 μl of human small airway epithelial cell suspension (10,000 cells/well) was then added to the appropriate wells of the E-Plate 96. Cell index was monitored for each well of the E-Plate 96 in a RTCA SP Station within the cell culture incubator. After overnight incubation for 16-20 hours at 5% CO2 and 95% humidity, 100 μl of test compound solution (test compounds were prepared in DMSO and diluted with cell culture medium to a concentration of 10 μM, 20 μM or 30 μM of test compound with a final DMSO concentration of 0.25%) was added to the appropriate wells of the E-Plate 96 and cell index values were measured immediately following compound treatment every 20 seconds for 3 hours. Cell index value is baseline-corrected by subtracting the cell index of vehicle-treated cells and normalized by dividing by the cell index at the time point immediately before compound addition. Baseline normalized cell index as a function of time is plotted using Roche RTCA software.

lung fibrosis = experiment: In vivo screening: bleomycin-treated spontaneous hypertensive rats, lung fibrosis quantitated by histomorphometry (Masson Trichrome); conditions: SHR given bleomycin at 14 weeks, 500 pmol/kg/min in drinking solution (5% ethanol) for 4 weeks from 16 weeks of age; for Fibrosis in the lung compared to 16 week controls: vs 16 week control (reversal of established fibrosis); for Fibrosis in the lung compared to 20 week controls: vs 20 week vehicle control (prevention)
Procedure: Fourteen week old spontaneous hypertensive rats (SHR) were anaesthetised using 3% isoflurane, the tongue was gently pulled forward and bleomycin […] in 200 μL of normal saline placed in the distal oropharynx using a micropipette while the nose is gently closed. Rats were then left to recover from anaesthesia. At 16 weeks of age SHR were randomised to control (16 weeks or 20 weeks) or treated groups. The 16 week controls were anaesthetised and had blood sampled and tissues harvested. The 20 week controls received drinking solution alone (5% ethanol) while the treated groups received test compound dissolved in the drinking water with concentration adjusted twice weekly to maintain a dose of 500 pmol/kg/min for 4 weeks. At 20 weeks of age rats were anaesthetised and had blood sampled and tissues harvested.
For histological examination lungs were fixed in formalin and sections from each of two levels were stained using Masson Trichrome. Fibrosis was quantitated by histomorphometry by an observer blinded to experimental group.

| SMILES | Cellular impedance (baseline normalized cell index) response [1] | Fibrosis in the lung compared to 16 week controls (lung fibrosis) | Fibrosis in the lung compared to 20 week controls (lung fibrosis) |
| --- | --- | --- | --- |
| NC(CCc1cc(-c2ccccc2)ccc1-c1cccc(O)c1)C(F)(F)F (stereo not drawn) [A6] | Negative impedance responses | decreased | decreased |
| O=C1NCCC1Cc1cc(-c2ccccc2)ccc1-c1cccc(O)c1 (stereo not drawn) [A26] | Negative impedance responses | – | – |
| O=C1NCC/C1=C\c1cc(-c2ccccc2)ccc1-c1cccc(O)c1 [A27] | Negative impedance responses | – | – |
| O=C1CC(Cc2cc(-c3ccccc3)ccc2-c2cccc(O)c2)C(=O)N1 (stereo not drawn) [A30] | Negative impedance responses | – | – |
| O=C1NC(=O)C(Cc2cc(-c3ccccc3)ccc2-c2cccc(O)c2)N1 (stereo not drawn) [A32] | Negative impedance responses | decreased | decreased |
| Nc1nocc1Cc1cc(-c2ccccc2)ccc1-c1cccc(O)c1 [A35] | Negative impedance responses | – | – |
| NOCCc1cc(-c2ccccc2)ccc1-c1cccc(O)c1 [A56] | Negative impedance responses | – | – |
| O=C1NC(=O)C(Cc2cc(-c3ccccc3)ccc2-c2cccc(O)c2)O1 (stereo not drawn) [A79] | Negative impedance responses | decreased | decreased |
| CS(=O)(=O)Nc1cc(NS(C)(=O)=O)cc(-c2ccc(-c3cncnc3)cc2CCC(N)=O)c1 [D4] | Negative impedance responses | – | – |
| CCOC(=O)C(Cc1cc(-c2cncnc2)ccc1-c1cc(N)ncn1)C(=O)OCC [D5, Diethyl (2-(6-aminopyrimidin-4-yl)-5-(pyrimidin-5-yl)benzyl)propanedioate] | Negative impedance responses | – | – |
| NC(=O)CCc1cc(-c2cncnc2)ccc1-c1cc(N)ncn1 [D6, 3-(2-(6-Aminopyrimidin-4-yl)-5-(pyrimidin-5-yl)phenyl)propanamide] | Negative impedance responses | decreased | decreased |
| CS(=O)(=O)Nc1cc(NS(C)(=O)=O)cc(-c2ccc(-c3cccnn3)cc2CCC(N)=O)c1 [D10] | Negative impedance responses | – | – |
| CS(=O)(=O)Nc1cc(-c2ccc(-c3cccnn3)cc2CCC(N)=O)ccn1 [D11, 3-(2-(2-((Methylsulfonyl)amino)pyridin-4-yl)-5-(pyridazin-3-yl)phenyl)propanamide] | negative deflection | – | – |
| NC(=O)CCc1cc(-c2cccnn2)ccc1-c1cc(N)ncn1 [D12, 3-(2-(6-Aminopyrimidin-4-yl)-5-(pyridazin-3-yl)phenyl)propanamide] | Negative impedance responses | – | – |
| CS(=O)(=O)NC1=CC(c2cccc(NS(C)(=O)=O)c2)(c2cnccn2)CC(CCC(N)=O)=C1 (stereo not drawn) [D16, 3-(3′,5-Bis((methylsulfonyl)amino)-1-(pyrazin-2-yl)biphenyl-3-yl)propanamide] | Negative impedance responses | – | – |
| CS(=O)(=O)Nc1cc(-c2ccc(-c3cnccn3)cc2CCC(N)=O)ccn1 [D17, 3-[2-(2-[(Methylsulfonyl)amino]pyridin-4-yl)-5-(pyrazin-2-yl)phenyl]propanamide] | Negative impedance responses | – | – |

| SMILES | Cellular impedance (baseline normalized cell index) response [1] | Fibrosis in the lung compared to 16 week controls (lung fibrosis) | Fibrosis in the lung compared to 20 week controls (lung fibrosis) |
| --- | --- | --- | --- |
| NC(=O)CCc1cc(-c2cnccn2)ccc1-c1cc(N)ncn1 [D18, 3-(2-(6-Aminopyrimidin-4-yl)-5-(pyrazin-2-yl)phenyl)propanamide] | Negative impedance responses | – | – |
| CS(=O)(=O)Nc1cccc(-c2ccc(-c3cccnc3)cc2CCC(N)=O)c1 [D28, 3-(3′-((Methylsulfonyl)amino)-4-(pyridin-3-yl)biphenyl-2-yl)propanamide] | Negative impedance responses | – | – |
| NC(=O)CCc1cc(-c2cccnc2)ccc1-c1ccc2[nH]c(=O)[nH]c2c1 [D30, 3-(2-(2-Oxo-2,3-dihydro-1H-benzimidazol-5-yl)-5-(pyridin-3-yl)phenyl)propanamide] | Negative impedance responses | decreased | decreased |
| CNS(=O)(=O)Nc1cccc(-c2ccc(-c3cccnc3)cc2CCC(N)=O)c1 [D31, 3-(3′-((Methylsulfamoyl)amino)-4-(pyridin-3-yl)biphenyl-2-yl)propanamide] | Negative impedance responses | – | – |
| Cc1nc(C)c(-c2ccc(-c3cccc(NS(C)(=O)=O)c3)c(CCC(N)=O)c2)s1 [D32, 4-(2,4-Dimethyl-1,3-thiazol-5-yl)-3-(3′-((methylsulfonyl)amino)biphenyl-2-yl)propanamide] | Negative impedance responses | – | – |
| CS(=O)(=O)Nc1cccc(-c2ccc(-c3ccc(F)cc3)cc2CCC(N)=O)c1 [D35, 3-(4″-Fluoro-3-((methylsulfonyl)amino)-1,1′:4′,1″-terphenyl-2′-yl)propanamide] | Negative impedance responses | – | – |
| NC(=O)CCc1cc(-c2cccnc2)ccc1-c1cccc(NC(=O)Nc2cccc(-c3ccc(-c4cccnc4)cc3CCC(N)=O)c2)c1 [D167] | Negative impedance responses | – | – |
| NC(=O)C=Cc1cc(-c2cncnc2)ccc1-c1ccnc(N)c1 [D171, 3-[2-(2-Aminopyridin-4-yl)-5-(pyrimidin-5-yl)phenyl]propenamide] | Negative impedance responses | – | – |
| NC(=O)C=Cc1cc(-c2cncnc2)ccc1-c1cc(N)cc(N)c1 [D172, 3-(2-(3,5-Diaminophenyl)-5-(pyrimidin-5-yl)phenyl)propenamide] | Negative impedance responses | – | – |
| NC(=O)CCc1cc(-c2cnccn2)ccc1-c1cccc(O)c1 [P13, 3-[3′-Hydroxy-4-(pyrazin-2-yl)biphenyl-2-yl]propanamide] | Negative impedance responses | – | decreased |
| NC(=O)CCc1cc(-c2cccnn2)ccc1-c1cccc(O)c1 [P14, 3-[3′-Hydroxy-4-(pyridazin-3-yl)biphenyl-2-yl]propanamide] | Negative impedance responses | – | – |
| NC(=O)CCc1cc(-c2ccncn2)ccc1-c1cccc(O)c1 [P25, 3-[3′-Hydroxy-4-(pyrimidin-4-yl)biphenyl-2-yl]propanamide] | Negative impedance responses | – | – |
| Cc1n[nH]c(C)c1-c1ccc(-c2cccc(O)c2)c(CCC(N)=O)c1 [P42] | Negative impedance responses | – | – |
| Cc1ccsc1-c1ccc(-c2cccc(O)c2)c(CCC(N)=O)c1 [P43] | Negative impedance responses | – | – |
| Cc1cscc1-c1ccc(-c2cccc(O)c2)c(CCC(N)=O)c1 [P44] | Negative impedance responses | – | – |
| NC(=O)CCc1cc(-c2ccccc2)ccc1-c1cccc(O)c1 [VB0004] | Negative impedance responses | decreased | decreased |
